Measurements taken from ChEMBL document CHEMBL1126840, “Steroidal affinity labels of the estrogen receptor. 1. 17 alpha-(Bromoacetoxy)alkyl/alkynylestradiols” (J Med Chem, 1993).

Legend:
[1] = biological target: T1, Estrogen receptor (Ovis aries) (UniProt P49885+Q9TU15)
[2] = biological target: T1, Estrogen receptor (Ovis aries); remark: listed apart in the source
[3] = biological target: T1, Estrogen receptor (Ovis aries); remark: listed apart in the source

Structure (SMILES)	RAC app [1]	RAC app [2]	RAC app [3]
C[C@]12CC[C@@H]3c4ccc(O)cc4CC[C@H]3[C@@H]1CC[C@@]2(O)CCCO	1.1	0.28	0.024
C[C@]12CC[C@@H]3c4ccc(O)cc4CC[C@H]3[C@@H]1CC[C@@]2(O)C#CCCCCCCOC(=O)CBr	2.4	1.5	0.24
C[C@]12CC[C@@H]3c4ccc(O)cc4CC[C@H]3[C@@H]1CC[C@@]2(O)CC1CO1 (stereo in doubt; 6b)	3.9	0.2	< 0.017
C[C@]12CC[C@@H]3c4ccc(O)cc4CC[C@H]3[C@@H]1CC[C@@]2(O)C#CCCO	3.9	1	0.07
C[C@]12CC[C@@H]3c4ccc(O)cc4CC[C@H]3[C@@H]1CC[C@@]2(O)CCCOC(=O)CBr	0.94	0.21	0.021

Further lines, results first:

RAC app [1]	RAC app [2]	RAC app [3]	Structure (SMILES)
6.5	3.4	0.4	C[C@]12CC[C@@H]3c4ccc(O)cc4CC[C@H]3[C@@H]1CC[C@@]2(O)C#CCCCCCCO
12	1.3	0.044	C[C@]12CC[C@@H]3c4ccc(O)cc4CC[C@H]3[C@@H]1CC[C@@]2(O)CC1CO1 (stereo in doubt; 6a)
2	0.79	0.066	C[C@]12CC[C@@H]3c4ccc(O)cc4CC[C@H]3[C@@H]1CC[C@@]2(O)C#CCCOC(=O)CBr
